Source: publication PMC10666625, “Exploring the benefits of in-diet versus repeated oral dosing of saracatinib (AZD0530) in chronic studies: insights into pharmacokinetics and animal welfare” (Frontiers in Veterinary Science, 2023)

Assays:
[1] = Serum pharmacokinetics after a single oral dose (24 h study), LC-MS/MS, noncompartmental analysis; format: in vivo, Sprague Dawley rats
Description: Twenty eight adult male Sprague Dawley rats (8 weeks old; 250-300 g; Charles River, United States) were used in the study. Animals were housed in individual cages with a 12-h light–dark cycle in an enriched environment. The experiments were conducted after 2–3 days of acclimatization as per the approved protocols by the Institutional Animal Care and Use Committees (IACUC protocol: 21–109) and complied with the NIH ARRIVE Guidelines for the Care and Use of Laboratory Animals. Blood sampling was done by retro-orbital puncture as per IACUC protocol. Maximal blood collection was limited to less than 7.5% of the […] in one week. The serum was separated by centrifugation at 1,000–1,500 × g for 10 min and stored at −80°C until further analysis. All animals were euthanized at the end of the study with pentobarbital sodium and phenytoin sodium (100 mg/kg, i.p.) as per the American Veterinary Medical Association Guidelines for euthanasia. Tissue samples were collected and stored at −80°C until further analysis.
(§1) The animals were randomized into four experimental groups (n = 4–8). In group 1 (24 h study; Figure 1A), eight animals received a single oral gavage of saracatinib (20 mg/kg), and the blood sampling was done at 0.5, 1, 2, 4, 6, 8, 12, and 24 h post-treatment. Four animals each were euthanized at 4 h and 24 h, respectively. In group 2 (7-day repeated oral dosing study; Figure 1B), eight animals received repeated daily oral dosing of saracatinib (20 mg/kg of rat) at 24 h intervals; the blood sampling was done daily at 24 h intervals before the next dosing. Four animals were euthanized 24 h after the third repeated oral dosing, i.e., day 3 and the other four animals were euthanized at day 7. Group 3 (7-day SAR-in-Diet study; Figure 1C), received a single oral gavage of saracatinib (20 mg/kg of rat) followed by 24 h later SAR-in-Diet for 7 days (260 ppm). The blood sampling was done at 24 h post oral and daily at 24 h intervals for 7 days while the animals were on SAR-in-Diet. Four animals each were euthanized on day 3 and 7. Group 4 (Figure 1D) included four animals that were given 7 repeated doses of oral saracatinib (20 mg/kg/day for a week) followed by ad-libitum SAR-in-Diet at varying concentrations fed for up to 18 weeks (260 ppm diet for 2 weeks, 210 ppm diet for a week, 160 ppm for 4 weeks, and 50 ppm diet for 11 weeks) The tapering concentrations of saracatinib in the diet from 260 to 50 ppm was done to target a daily saracatinib dose rate in the range of 20–5 mg/kg respectively, in a 24 h feeding cycle. Blood samples were collected at the end of each diet change.
Samples were submitted to the W.M. Keck Metabolomics Research Laboratory (Office of Biotechnology, Iowa State University, Ames, IA) for targeted saracatinib LC–MS/MS quantification. Serum and hippocampus preparations were conducted using a modified version of the previously available extraction and sample preparation methods previously established ([18], [19]). 50–75 μL or 50–75 mg wet weight of each sample was added to microcentrifuge tubes. A Reagent control sample was generated for each sample batch, 75 μL of 0.9% NaCl which was extracted in the same fashion as the samples. The weighed samples were then spiked with the internal standard, 1.25 μg of S-Hexylglutathione (Sigma-Aldrich CO., St. Louis, MO), added as 10 μL of from a 0.125 mg/mL solution in LC–MS grade 9:1 methanol: acetonitrile (Fisher Scientific, Waltham, MA). The extraction was initiated by the addition of 0.4 mL of 90% ice-cold LC–MS grade methanol with 10% LC–MS grade water (Fisher Scientific, Waltham, MA). For the hippocampus samples, after adding the 90% methanol to the samples, two 2.4 mm metal beads were added to each sample, the tissue was then homogenized using a Bead Mill 24 Homogenizer (Thermo Fisher Scientific, Inc., Waltham, MA, United States). […]

[2] = Hippocampal concentrations after a single oral dose (24 h study); format: in vivo, Sprague Dawley rats; conditions: single oral dose 20 mg/kg
Description: as §1
(§2) Samples were submitted to the W.M. Keck Metabolomics Research Laboratory (Office of Biotechnology, Iowa State University, Ames, IA) for targeted saracatinib LC–MS/MS quantification. Serum and hippocampus preparations were conducted using a modified version of the previously available extraction and sample preparation methods previously established ([18], [19]). 50–75 μL or 50–75 mg wet weight of each sample was added to microcentrifuge tubes. […]

[3] = 7-day repeated daily oral dosing study: serum and hippocampal concentrations; format: in vivo, Sprague Dawley rats
Description: as §1, §2

[4] = Stability at room temperature in solution or in diet by LC-MS/MS; format: physicochemical
Description: Samples were submitted to the W.M. Keck Metabolomics Research Laboratory (Office of Biotechnology, Iowa State University, Ames, IA) for targeted saracatinib LC–MS/MS quantification. One or two food pellets (1.5–3 g) were homogenized by mortar-and-pestle before being transferred and weighed in glass tubes with Teflon-lined screw caps. A reagent control sample was generated for each sample batch which was prepared in the same fashion as the samples. The weighed samples were then spiked with the internal standard, 250 μg of S-Hexylglutathione (Sigma-Aldrich CO., St. Louis, MO), added as 1.0 mL of from a 0.25 mg/mL solution in LC–MS grade 9:1 methanol: acetonitrile (Fisher Scientific, Waltham, MA). The extraction was initiated by the addition of 8 mL of 90% LC–MS grade methanol with 10% LC–MS grade water (Fisher Scientific, Waltham, MA). […]
LC separations were performed with an Agilent Technologies 1,290 Infinity Binary Pump UHPLC instrument equipped with an Agilent Technologies Eclipse C18 1.8 μm 2.1 mm × 100 mm analytical column that was coupled to an Agilent Technologies 6,540 UHD Accurate-Mass Q-TOF mass spectrometer (Agilent Technologies, Santa Clara, CA). […] Saracatinib was detected using electrospray ionization in positive ionization mode. […] During LC–MS data acquisition, reference masses were monitored for continuous mass calibration: m/z 121.050873 with m/z 922.009698. […]

[5] = parameters: method as in PMID 19775203; conditions: healthy humans, 250 mg/day once daily for 10–14 days; cited from earlier work
[6] = tested on: kainate (KA) model of temporal lobe epilepsy; parameters: method as in PMID 34087381; conditions: treating for a week, repeated oral dosing; cited from earlier work
[7] = tested on: organophosphate (OP) induced epilepsy models; parameters: method as in PMID 35052568; conditions: treatment for a week; cited from earlier work
[8] = tested on: ABCB1; parameters: method as in PMID 22623106; conditions: cited from earlier work
[9] = male, Sprague Dawley, single oral dose 20 mg/kg, rat serum, median, n=4

For `CN1CCN(CCOc2cc(OC3CCOCC3)c3c(Nc4c(Cl)ccc5c4OCO5)ncnc3c2)CC1` [saracatinib, Saracatinib], the “Time saracatinib was detected in the serum” value ([1]; after a single oral dose 20 mg/kg) was “up to 24 h”, the Tmax ([1]; male, Sprague Dawley, rat, serum, po, 20 mg/kg, single oral dose 20 mg/kg, rat serum, median, n=4) was 6 h and the AUC(0-t) ([1]; male, Sprague Dawley, single oral dose 20 mg/kg, rat serum, 0 to 24 h, median, n=4, read-out: AUC (0-tlast)) was 6990 ng·h/mL. The AUC(0-inf) [1, 9] was 7060 ng·h/mL, the CL/F [1, 9] was 47.2 mL/min/kg and the Cmax [1, 9] was 954 ng/mL. The Vd/F [1, 9] was 15.6 L/kg, the half-life [1, 9] was 4.12 h and the k el [1, 9] was 5e-05 s⁻¹. The concentration at 4 h ([2]; male, Sprague Dawley, rat, hippocampus, 4 h, read-out: Hippocampal level) was > 500 ng/g, the “Hippocampal versus serum concentrations” value ([2]; 4 h and 24 h) was “higher than the serum concentrations” and the “Hippocampal concentration at 24 h compared to 4 h” value ([2]; 24 h) was “dropped to nearly half”. For the same compound, the concentration at 3 day ([3]; male, Sprague Dawley, rat, hippocampus, repeated oral dosing 20 mg/kg/day, day 3, read-out: Hippocampal saracatinib concentration) was 239 ± 143 ng/g, the concentration at 7 day ([3]; male, Sprague Dawley, rat, hippocampus, repeated oral dosing 20 mg/kg/day, day 7, read-out: Hippocampal saracatinib concentration) was 271 ± 62.3 ng/g and the “Serum saracatinib concentration (trough, 24 h after dose)” value ([3]; repeated daily oral dosing 20 mg/kg, first three days) was ~ 100 ng/mL. The “Time stable at room temperature” value [4] was > 4 weeks, the “Stability at room temperature (percent)” value ([4]; >4 weeks) was 97 ± 1.56% and the T1/2 [5] was 40 h. For the same compound, the Tolerability [5] was “well tolerated”, the “Long-term effects (reactive gliosis, neurodegeneration, epileptiform spiking, spontaneously recurring seizures)” value [6] was “sufficient to mitigate long-term effects” and the Protective effects [7] was “limited”. For the same compound, the “Effect on ABCB1” value [8] was “only inhibits ABCB1 transport function, without altering ABCB1 expression or AKT phosphorylation”.
